Assay results as given in paper PMC7902834, “A rotary mechanism for allostery in bacterial hybrid malic enzymes” (Nature Communications, 2021).
Each block holds one compound with its values, some of them ahead of it.

Columns and labels:
Format in all cases: biochemical
[1] = target: T1, MaeB (hybrid malic enzyme, Bd1833/MaeB) (Bdellovibrio bacteriovorus, UniProt Q6MM14+Q6MM15); experiment: steady-state kinetics, NADPH absorbance; parameters: gene mdh; full-length MaeB (Met1–Lys780)
Target sequence in this assay (Q6MM15 entry or part of it): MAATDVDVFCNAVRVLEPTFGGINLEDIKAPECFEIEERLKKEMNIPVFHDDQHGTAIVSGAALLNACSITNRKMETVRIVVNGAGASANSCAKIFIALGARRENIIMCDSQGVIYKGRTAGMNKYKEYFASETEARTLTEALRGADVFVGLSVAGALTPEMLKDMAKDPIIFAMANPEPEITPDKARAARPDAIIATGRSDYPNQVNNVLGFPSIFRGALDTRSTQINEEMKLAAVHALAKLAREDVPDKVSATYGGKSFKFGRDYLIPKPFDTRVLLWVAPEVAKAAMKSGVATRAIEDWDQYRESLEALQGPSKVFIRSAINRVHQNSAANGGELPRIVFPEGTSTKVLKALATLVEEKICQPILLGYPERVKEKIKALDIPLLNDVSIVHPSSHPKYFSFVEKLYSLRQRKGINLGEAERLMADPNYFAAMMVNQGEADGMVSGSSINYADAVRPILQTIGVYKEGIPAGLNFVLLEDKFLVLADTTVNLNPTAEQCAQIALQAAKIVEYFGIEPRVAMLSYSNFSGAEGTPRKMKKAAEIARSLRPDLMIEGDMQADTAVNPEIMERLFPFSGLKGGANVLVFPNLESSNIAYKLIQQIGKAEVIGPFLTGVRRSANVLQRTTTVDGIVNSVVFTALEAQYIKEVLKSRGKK
Target sequence in this assay (Q6MM14 entry or part of it): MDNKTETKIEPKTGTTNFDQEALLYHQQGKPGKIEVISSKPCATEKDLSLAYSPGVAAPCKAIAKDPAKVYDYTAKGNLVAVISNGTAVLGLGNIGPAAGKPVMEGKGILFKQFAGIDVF

[2] = target: T1, MaeB (hybrid malic enzyme, Bd1833/MaeB); experiment: NADPH absorbance assay ([…] nm), single concentration […]; parameters: gene mdh; full-length MaeB (Met1–Lys780); details: read-out: % of uninhibited activity at 2 mM
Target sequence in this assay (Q6MM15 entry or part of it): as the sequence (Q6MM15 entry or part of it) above
Target sequence in this assay (Q6MM14 entry or part of it): as the sequence (Q6MM14 entry or part of it) above

[3] = target: T2, MaeB (hybrid malic enzyme, Bd1833/MaeB) (Bdellovibrio bacteriovorus, UniProt Q6MM15); experiment: X-ray crystal structures of PTA domain and full-length; HPLC of co-purified ligand; enzyme inhibition kinetics (IC50 […]); parameters: gene mdh; full-length MaeB (Met1–Lys780) kinetics and crystal structure (6ZNG)
[4] = target: T2, MaeB (hybrid malic enzyme, Bd1833/MaeB); experiment: NADPH absorbance assay ([…] nm), dose response; parameters: gene mdh; full-length MaeB (Met1–Lys780), ligand-free MaeBapo
[5] = target: T1, MaeB (hybrid malic enzyme, Bd1833/MaeB); experiment: steady-state kinetics of reverse reductive carboxylation; parameters: gene mdh; full-length MaeB (Met1–Lys780)
Target sequence in this assay (Q6MM15 entry or part of it): as the sequence (Q6MM15 entry or part of it) above
Target sequence in this assay (Q6MM14 entry or part of it): as the sequence (Q6MM14 entry or part of it) above

[6] = target: T1, MaeB (hybrid malic enzyme, Bd1833/MaeB); experiment: NADPH absorbance assay ([…] nm), single concentration […] ([…] activity left); parameters: gene mdh; full-length MaeB and MaeBME (Met1–Ala434)
Target sequence in this assay (Q6MM14 entry or part of it): as above
Target sequence in this assay (Q6MM15 entry or part of it): as the sequence (Q6MM15 entry or part of it) above

T2 sequence (Q6MM14 entry or part of it): as the sequence (Q6MM14 entry or part of it) above
T2 sequence (Q6MM15 entry or part of it): as the sequence (Q6MM15 entry or part of it) above

- activity at 2000 µM [2]: ~50%
SMILES: CC(=O)OP(=O)(O)O [acetyl phosphate]

- steady-state kinetics of reverse reductive carboxylation [5]: 30 M⁻¹ s⁻¹
SMILES: CC(=O)C(=O)O [pyruvate]

More lines, now with the values behind:

SMILES: O=C(O)C[C@H](O)C(=O)O [L-malate]
- steady-state kinetics, NADPH absorbance [1]: 10000 M⁻¹ s⁻¹

SMILES: CC(=O)SCCNC(=O)CCNC(=O)[C@H](O)C(C)(C)COP(=O)(O)OP(=O)(O)OC[C@H]1O[C@@H](n2cnc3c(N)ncnc32)[C@H](O)[C@@H]1OP(=O)(O)O [acetyl-CoA]
- Ki [3]: 0.7 µM

SMILES: CC(C)(COP(=O)(O)OP(=O)(O)OC[C@H]1O[C@@H](n2cnc3c(N)ncnc32)[C@H](O)[C@@H]1OP(=O)(O)O)[C@@H](O)C(=O)NCCC(=O)NCCS [CoA]
- IC50 [4]: 20.2 µM

SMILES: O=C(O)CC(=O)C(=O)O [oxaloacetate]
- NADPH absorbance assay (340 nm), single concentration 2 mM (<10% activity left) [6]: oxaloacetate inhibited both MaeB and MaeBME activities, suggesting this effector interacts directly with the ME domain
